{"source": "patent US7928088B2", "about": "“Th1 cell differentiation accelerator” (priority 2006, dated 2011)", "key": {"[1]": {"system": "human naive CD4T cells", "type": "cell-based", "conditions": "for IFNγ+IL-4− cells (%) / ratio of IFNγ-producing cells (in words): Th1 differentiation inducing conditions; for IFNγ+IL-4− cells (%): crude human CD4T cells; for ratio of IFNγ-producing cells (in words): summary of Tables 4 and 5"}, "[2]": {"system": "human naive CD4T cells", "experiment": "Human Th2 differentiation induction culture with intracellular IFNγ/IL-4 staining and flow cytometry", "type": "cell-based", "conditions": "for ratio of IFNγ-producing cells (in words) / ratio of IL-4-producing cells (in words) / IFNγ+IL-4− cells (%) / IFNγ−IL-4+ cells (%): Th2 differentiation inducing conditions; for IFNγ+IL-4− cells (%) / IFNγ−IL-4+ cells (%): crude human CD4T cells; for IFNγ+IL-4− cells (%): control 18.1; for IFNγ−IL-4+ cells (%): control 19.4", "method": "Separation of human naive CD4T cells was performed using an automated magnetic cell sorter (autoMACS Miltenyi Biotec GmbH) by the method described below. Whole blood was drawn by venous paracentesis from six healthy donor volunteers at 24 to 50 years of age. 50 ml of human peripheral blood was diluted two fold with 50 ml of a D-PBS solution (Sigma-Aldrich Inc). Next, 25 ml of the above-described diluted peripheral blood was gradually overlain in four centrifugal tubes containing 12.5 ml of Ficoll-Paque Plus (Amersham Biosciences), and the tubes were centrifuged using a centrifuge at room temperature and 950 G for 30 minutes. After centrifugation, lymphocytes present in the intermediate layer between the Ficoll-Paque and the supernatant were recovered, and suspended in a D-PBS solution containing 3% fetal calf serum (FCS: JRH Biosiences) and 2 mM EDTA (Dojindo Inc) (hereinafter, referred to as MACS buffer); the suspension was centrifuged using a centrifuge at 4° C. and 500 G for 5 minutes to sediment the lymphocytes. The resulting lymphocyte pellet was again suspended in MACS buffer; the suspension was centrifuged at 500 G for 5 minutes to sediment the lymphocytes, and twice washed to yield a lymphocyte pellet. This cell pellet was again suspended in the MACS buffer to obtain a cell density of 1×10^8 cells/ml. To 1×10^7 lymphocytes, 2 μL of an FITC-labeled anti-human CD8 antibody (BD BioScience Pharmingen) and 2 μL of an FITC-labeled anti-human CD45RO antibody (BD BioScience Pharmingen) were added, and they were reacted on ice for 30 minutes to thereby bind each antibody. The MACS buffer was added to the reaction mixture, and the mixture was centrifuged and twice washed at 4° C. Next, 10 μL of anti-FITC microbeads (Miltenyi Biotec GmbH) was added to 1×10^7 lymphocytes coupled with each antibody, and they were reacted with each other on ice for 15 minutes. The MACS buffer was added to the reaction mixture, and the mixture was centrifuged and twice washed at 4° C. The cell pellet obtained was suspended in the MACS buffer to obtain a cell density of 5×10^7/ml, and the suspension was passed through a nylon mesh (Abe Kagaku), after which a CD8- and CD45RO-double-negative fraction was recovered using an automated magnetic cell sorter (AutoMACS Miltenyi Biotec GmbH) to thereby separate human naive CD4T cells, which were supplied for the following experiments.\nUnder Th2 differentiation conditions, the cells were stimulated on a plate having the anti-CD3 antibody immobilized thereon for 2 days in a differentiation induction medium containing 50 U/ml (final concentration) IL-2 (Immunace, Shionogi & Co., Ltd.), 1 ng/ml (final concentration) IL-4, and 5 μg/ml (final concentration) anti-IFNγ antibody (Pharmingen, and the cells were transferred to a plate without immobilized anti-CD3 antibody, and cultured for 5 days. Furthermore, in the case of Th2 cell differentiation, following the 2 days, 5 days of differentiation induction was performed in two consecutive cycles.\nUnless otherwise specified, the final concentrations of CW, LAM/LM, PIM2 and PIM6 were adjusted to 100 μg/ml.\nCells undergoing Th1 differentiation induction (Th1-induced cells) and cells undergoing Th2 differentiation induction (Th2-induced cells) were cultured and stimulated in the presence of Monensin (Sigma) in a medium supplemented with PMA (Phorbol-12-Myristate-13-Acetate, Sigma-Aldrich) and Ionomycin (Calbiochem) for 4 hours. After stimulation, intracellular staining was performed by the method described below, the cells were analyzed using a cell analyzer (FACScalibur), and the degree of Th1 or Th2 differentiation induction was evaluated. […]"}, "[3]": {"conditions": "10 μg/ml, Table 4 test, vehicle 51.2"}, "[4]": {"conditions": "30 μg/ml, Table 5 test, vehicle 60.6"}, "[5]": {"conditions": "100 μg/ml, Table 4 test, vehicle 51.2"}, "[6]": {"conditions": "100 μg/ml, Table 5 test, vehicle 60.6"}}, "note": "Like-named read-outs stand apart in the source and are kept apart here.", "data": [{"substance": "lipomannan [LM]", "values": [{"measurement": "IFNγ+IL-4− cells (%)", "setting": "[1]; [3]", "result": 56.7, "unit": "%"}, {"measurement": "IFNγ+IL-4− cells (%)", "setting": "[1]; [4]", "result": 70.5, "unit": "%"}, {"measurement": "IFNγ+IL-4− cells (%)", "setting": "[1]; [5]", "result": 67.9, "unit": "%"}, {"measurement": "IFNγ+IL-4− cells (%)", "setting": "[1]; [6]", "result": 69.1, "unit": "%"}, {"measurement": "ratio of IFNγ-producing cells (in words)", "setting": "[1]", "result": "significantly increased"}, {"measurement": "ratio of IFNγ-producing cells (in words)", "setting": "[2]; FIG. 13 and Table 6", "result": "dose-dependently increased"}, {"measurement": "ratio of IL-4-producing cells (in words)", "setting": "[2]; FIG. 13 and Table 6", "result": "dose-dependently suppressed"}, {"measurement": "IFNγ+IL-4− cells (%)", "setting": "[2]; 3 μg/ml", "result": 29.5, "unit": "%"}, {"measurement": "IFNγ−IL-4+ cells (%)", "setting": "[2]; 3 μg/ml", "result": 14.3, "unit": "%"}, {"measurement": "IFNγ+IL-4− cells (%)", "setting": "[2]; 30 μg/ml", "result": 38.4, "unit": "%"}, {"measurement": "IFNγ−IL-4+ cells (%)", "setting": "[2]; 30 μg/ml", "result": 8.8, "unit": "%"}]}, {"substance": "lipoarabinomannan [LAM]", "values": [{"measurement": "IFNγ+IL-4− cells (%)", "setting": "[1]; [3]", "result": 55.9, "unit": "%"}, {"measurement": "IFNγ+IL-4− cells (%)", "setting": "[1]; [4]", "result": 63.1, "unit": "%"}, {"measurement": "IFNγ+IL-4− cells (%)", "setting": "[1]; [5]", "result": 55.4, "unit": "%"}, {"measurement": "IFNγ+IL-4− cells (%)", "setting": "[1]; [6]", "result": 67.6, "unit": "%"}, {"measurement": "ratio of IFNγ-producing cells (in words)", "setting": "[1]", "result": "significantly increased"}, {"measurement": "ratio of IFNγ-producing cells (in words)", "setting": "[2]; FIG. 13 and Table 6", "result": "dose-dependently increased"}, {"measurement": "ratio of IL-4-producing cells (in words)", "setting": "[2]; FIG. 13 and Table 6", "result": "dose-dependently suppressed"}, {"measurement": "IFNγ+IL-4− cells (%)", "setting": "[2]; 3 μg/ml", "result": 26.9, "unit": "%"}, {"measurement": "IFNγ−IL-4+ cells (%)", "setting": "[2]; 3 μg/ml", "result": 17.2, "unit": "%"}, {"measurement": "IFNγ+IL-4− cells (%)", "setting": "[2]; 30 μg/ml", "result": 34.8, "unit": "%"}, {"measurement": "IFNγ−IL-4+ cells (%)", "setting": "[2]; 30 μg/ml", "result": 11.9, "unit": "%"}]}, {"substance": "cardiolipin [reference compound]", "values": [{"measurement": "number of IFNγ-producing cells (in words)", "setting": "[1]; Th1 differentiation conditions, T cells from six healthy human volunteers, 100 μg/ml, FIGS. 8 and 9", "result": "did not increase"}, {"measurement": "potential to induce Th1 differentiation", "setting": "[1]; Th1 differentiation induction, 100 μg/ml, FIG. 7B", "result": "did not exhibit the potential to induce Th1 differentiation"}, {"measurement": "number of IL-4-producing cells (in words)", "setting": "[2]; Th2 differentiation conditions, T cells from six healthy human volunteers, 100 μg/ml, FIGS. 8 and 9", "result": "increased"}, {"measurement": "ratio of IFNγ-producing cells (in words)", "setting": "[2]; 100 μg/ml, FIG. 7B", "result": "did not increase"}, {"measurement": "ratio of IL-4-producing cells (in words)", "setting": "[2]; 100 μg/ml, FIG. 7B", "result": "increased"}]}]}
